Assay results reported in patent publication US11447495B2, “Substituted benzo[f]imidazo[1,5-a][1,4]diazepines as GABA(a) receptor modulators” (priority 2016, dated 2022).

How the values were obtained:
[1] = Airway hyperresponsiveness (sRaw) to methacholine in ovalbumin asthma model; type: in vivo, ova s/c BALB/c mice; conditions: oral gavage, 100 mg/kg twice daily for 5 days, methacholine challenge
Procedure: Compounds described herein may reduce airway hyperresponsiveness in animal models of asthma. Therefore, mice may be sensitized three times with intra-peritoneal (i.p.) injections of 2 mg/kg/d of ovalbumin (Ova) emulsified in […] on days 0, 7 and 14 in a total volume of 100 μL. In addition, mice may be challenged intra-nasally (i.n.) with 1 mg/kg/d Ova for 5 days from days 23-27. Control mice may be sensitized with Ova and challenged with saline. The airway hyperresponsiveness measurements may be carried out with DSI's Buxco® FinePointe Non-Invasive Airway Mechanics (NAM) instrument consisting of a nasal chamber in combination with the thoracic chamber that allows the computation of specific airway resistance (sRaw). Treated conscious, spontaneously breathing Ova S/C mice may be exposed to aerosolized phosphate buffered saline (PBS) (for the baseline measurement) or methacholine (1.5625-12.5 mg/mL) for 1 minute and readings (sRaw) may be taken and averaged for 3 minutes after each nebulization.
Drug treatment protocol: Sterile solutions of compounds were prepared in 2% hydroxypropyl methylcellulose solution (Sigma-Aldrich, St. Louis, Mo.) and 2.5% polyethylene glycol (Sigma Aldrich, St. Louis, Mo.) for oral administration in a biological safety cabinet. A fine suspension was obtained by grinding the mixture with a mortar and pestle. Drugs were administered individually at 100 mg/kg by oral gavage (200 ul) with 20G gavage needles (Kent Scientific Corporation, Torrington Conn.) to groups of ova s/c BALB/c twice daily for 5 days during the ova challenge period. Mice received a single p.o. dose of the compounds just before airway parameter measurements. Compounds for i.p. injection were prepared in 10% DMSO, 40% propylene glycol, and 50% PBS and given as 100 ul injection. Mice were monitored daily after drug administration. Assessment of Airway hyper-responsiveness: Airway hyper-responsiveness to methacholine in conscious, spontaneously breathing animals was measured by DSI's Buxco® FinePointe Non-Invasive Airway Mechanics (NAM) instrument. Before measurements were taken, mice were acclimated to the chambers 15 minutes daily for 5 days. In addition, an ovalbumin sensitization and challenge protocol consists of randomized male BALB/c mice that were sensitized three times with intra-peritoneal (i.p.) injections of 2 mg/kg/d of ovalbumin (Ova) (Sigma-Aldrich, St. Louis, Mo.) emulsified in 2 mg of Alum (Imject Alum; Thermo Scientific, Pierce, Rockford, Ill.) on days 0, 7 and 14 in a total volume of 100 μL. The mice were then challenged intra-nasally (i.n.) with 1 mg/kg/d Ova for 5 days from days 23-27. Control mice were sensitized with Ova and challenged with saline. The chambers were also calibrated each time before data collection. Briefly, the nasal chamber in combination with the thoracic chamber allows the computation of specific airway resistance (sRaw). The FinePointe software computes specific airway resistance (sRaw) with all other ventilatory parameters derived by the NAM analyzer. Mice were exposed to aerosolized PBS (for the baseline measurement) or methacholine (1.5625-12.5 mg/mL) for 1 minute and readings were taken and averaged for 3 minutes after each nebulization. Data obtained were presented as sRaw versus the methacholine concentration (mg/mL) used to generate the aerosol. FIG. 5A-5F show compound effects on airway hyperresponsiveness. Specific airway resistance (sRaw) was measured at increasing dosages of methacholine by a DSI's Buxco FinePointe non-invasive airway mechanics instrument. Ova s/c BALB/c mice were administered all compounds via oral gavage, 100 mg/kg twice daily for 5 days. Data represent mean±SEM from 10 mice in each group. *, **, and *** indicate p<0.05, p<0.01, p<0.001 significance, respectively, compared to vehicle treated ova s/c BALB/c mice.

mucin = test: Mucin production in airway epithelium, morphometric quantification; type: in vivo, Balb/c mice; conditions: 100 mg/kg twice for five days
Procedure: Pharmacodynamic effects of compounds in respect to mucus production were investigated after the AHR measurement by harvesting the lungs of treated and non-treated Ova S/C mice followed by formalin fixation and paraffin embedding. Sections were prepared from one lobe (including large and small airways) and processed for standard H&E (for general histopathology and inflammation) and PAS (for mucous cell; as cells/mm of basement membrane) staining. FIGS. 10A-10B show compound effects on mucin production: (A) Morphometric quantification of mucin volume density and (B) representative images of mucin (red) in the airway epithelium (green) with periodic acid fluorescent Schiff's stain. Balb/c mice were administered compounds at 100 mg/kg twice for five days. Data represent mean±SEM from 5-7 mice in each group. Scale bar represents 100 μm.

[2] = Pharmacokinetic analysis in blood, lungs and brain; conditions: mouse, 25 mg/kg oral gavage
[3] = Microsomal stability, human liver microsomes; type: in vitro ADME; conditions: 10 μM compound
Procedure: (§1) The metabolic stability of compounds in vivo can be estimated with the stability of compounds in the presence of liver microsomes. Therefore, 4 μL of 1 mM DMSO solution of test compound at a final concentration of 10 μM were preincubated at 37° C. for 5 minutes on a digital heating shaking dry bath (Fischer scientific, Pittsburgh, Pa.) in a mixture containing 282 μL of water, 80 μL of phosphate buffer (0.5 M, pH 7.4) 20 μL of NADPH Regenerating System Solution A (BD Bioscience, San Jose, Calif.) and 4 μL of NADPH Regenerating System Solution B (BD Bioscience, San Jose, Calif.) in a total volume of 391.2 μL. Following preincubation, the reaction was initiated by addition of 8.8 μL of either human liver microsomes (BD Gentest, San Jose, Calif.) or mouse liver microsomes (Life technologies, Rockford, Ill.) at a protein concentration of 0.5 mg/mL. Aliquots of 50 μL were taken at time intervals of 0 (without microsomes), 10, 20, 30, 40, 50 and 60 minutes. Each aliquot was added to 100 μL of cold acetonitrile solution containing 1 μM of verapamil HCL as internal standard. This was followed by sonication for 10 seconds and centrifugation at 10,000 rpm for 5 minutes. 100 μL of the supernatant was transferred into Spin-X HPLC filter tubes (Corning Incorporated, NY) and centrifuged at 13,000 rpm for 5 minutes. The filtrate was diluted 100-fold and subsequently analyzed by LC-MS/MS with Shimadzu LCMS 8040, (Shimadzu Scientific Instruments, Columbia, Md.). The ratio of the peak areas of the internal standard and test compound was calculated for every time point and the natural log of the ratio were plotted against time to determine the linear slope (k). The metabolic rate (k*C0/C), half-life (0.693/k), and […] (V*k) were calculated, where k is the slope, C0 is the initial concentration of test compound, C is the concentration of microsomes, and V is the volume of incubation in μL per microsomal protein in mg. All experiments were repeated two time in triplicates.

[4] = Microsomal stability, mouse liver microsomes; type: in vitro ADME; conditions: 10 μM compound
Procedure: as §1

SMILES	airway hyperresponsiveness (sRaw) [1]	production of mucin (mucin)	bioavailability [2]	HLM % remaining after 60 min [3]	MLM % remaining after 60 min [4]
C[C@H]1N=C(c2ccccc2F)c2cc(Br)ccc2-n2cnc(C(=O)O)c21 [GL-II-93, (R)-8-bromo-6-(2-fluorophenyl)-4-methyl-4H-benzo[f]imidazo[1,5-a][1,4]diazepine-3-carboxylic acid]	reduced airway hyperresponsiveness at one or multiple concentrations of methacholine	did not change the production of mucin	excellent bioavailability		
CCOC(=O)c1ncn2c1[C@@H]1CCCN1C(=O)c1cc(O)ccc1-2 [RJ-02-50, ethyl (S)-7-hydroxy-9-oxo-11,12,13,13a-tetrahydro-9H-benzo[e]imidazo[5,1-c]pyrrolo[1,2-a][1,4]diazepine-1-carboxylate]	reduced airway hyperresponsiveness at one or multiple concentrations of methacholine	did not change the production of mucin	excellent bioavailability	91.7 ± 0.2%	91.1 ± 0.1%
O=C1c2cc(O)ccc2-n2cnc(-c3cnco3)c2[C@@H]2CCCN12 [RJ-03-30, (S)-7-hydroxy-1-(oxazol-5-yl)-11,12,13,13a-tetrahydro-9H-benzo[e]imidazo[5,1-c]pyrrolo[1,2-a][1,4]diazepin-9-one]	not able to alleviate airway hyperresponsiveness			91.8 ± 0.2%	80.0 ± 0.3%
C#Cc1ccc2c(c1)C(c1ccccc1F)=N[C@H](C)c1c(C(=O)O)ncn1-2 [SH-053-2′F-R-CH3-Acid, (R)-8-ethynyl-6-(2-fluorophenyl)-4-methyl-4H-benzo[f]imidazo[1,5-a][1,4]diazepine-3-carboxylic acid]	reduced airway hyperresponsiveness at one or multiple concentrations of methacholine	did not change the production of mucin	excellent bioavailability	92.0 ± 0.2%	89.0 ± 0.3%
